Data reported in patent US9512107B2, “Therapeutically active compositions and their methods of use” (Agios Pharmaceuticals, Inc., priority 2012, dated 2016).

Assays:
[1] = biological target: T1, IDH2 R140Q (Homo sapiens, UniProt P48735, R140Q); assay: IDH2 R140Q enzymatic assay (cofactor depletion, similar format); type: biochemical; conditions: read-out: Enz R140Q
T1 sequence (P48735 40-452 R140Q): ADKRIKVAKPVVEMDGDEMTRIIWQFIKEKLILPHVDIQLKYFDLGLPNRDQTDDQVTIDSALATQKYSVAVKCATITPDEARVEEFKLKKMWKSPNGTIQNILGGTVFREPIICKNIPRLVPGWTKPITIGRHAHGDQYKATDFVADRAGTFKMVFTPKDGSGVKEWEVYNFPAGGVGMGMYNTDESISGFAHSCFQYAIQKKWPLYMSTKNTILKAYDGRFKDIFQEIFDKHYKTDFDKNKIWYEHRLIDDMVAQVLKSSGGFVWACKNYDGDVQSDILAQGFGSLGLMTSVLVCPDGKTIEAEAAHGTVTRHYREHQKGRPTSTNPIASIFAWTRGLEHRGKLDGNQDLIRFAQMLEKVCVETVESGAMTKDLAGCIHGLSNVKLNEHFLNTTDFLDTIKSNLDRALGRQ

[2] = tested on: U87MG pLVX-IDH2 R140Q-neo cells; assay: U87MG pLVX-IDH2 R140Q-neo cell based assay, 2-HG in media by LC-MS at 48 hours; conditions: Homo sapiens, U-87 MG
How it was run: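 U87MG cells stably expressing IDH2 R140Q were seeded overnight, then exposed to compound at 0.2% final DMSO at 37 °C, 5% CO2. 2-HG in the medium was quantified by LC-MS at 48 h. Growth inhibition was read by CellTiter-Glo luminescence at 72 h.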

For `CC(C)(O)CNc1nc(Nc2ccnc(F)c2)nc(-c2cccc(Cl)n2)n1` [Compound 368, 1-(4-(6-chloropyridin-2-yl)-6-(2-fluoropyridin-4-ylamino)-1,3,5-triazin-2-ylamino)-2-methylpropan-2-ol], the IC50 [1] was 1 to 10 µM and the IC50 [2] was less than 0.1 µM.
In the case of `CC(C)Nc1nc(Nc2ccnc(C#N)c2)nc(-c2ccccc2F)n1` [Compound 369, 4-(4-(2-fluorophenyl)-6-(isopropylamino)-1,3,5-triazin-2-ylamino)picolinonitrile], the IC50 [1] is reported as less than 0.1 µM and the IC50 [2] is reported as less than 0.1 µM.
`CC(C)Nc1nc(Nc2ccnc(C(F)(F)F)c2)nc(-c2ccccc2F)n1` [Compound 370, 6-(2-fluorophenyl)-N^2-isopropyl-N^4-(2-(trifluoromethyl)pyridin-4-yl)-1,3,5-triazine-2,4-diamine] was tested, and the IC50 [1] was less than 0.1 µM and the IC50 [2] was less than 0.1 µM.
With `CC(C)Nc1nc(Nc2ccnc(F)c2)nc(-c2ccccc2F)n1` [Compound 371, 6-(2-fluorophenyl)-N^2-(2-fluoropyridin-4-yl)-N^4-isopropyl-1,3,5-triazine-2,4-diamine] the IC50 [1] was less than 0.1 µM and the IC50 [2] was less than 0.1 µM.
For `CC(C)Nc1nc(Nc2cccc(S(=O)(=O)N3CCC3)c2)nc(-c2ccccc2)n1` [Compound 376, N^2-(3-(azetidin-1-ylsulfonyl)phenyl)-N^4-isopropyl-6-phenyl-1,3,5-triazine-2,4-diamine], the IC50 [1] was 0.1 to 1 µM and the IC50 [2] was less than 0.1 µM.
For `Fc1cc(Nc2nc(NC3COC3)nc(-c3cccc(C(F)(F)F)n3)n2)ccn1` [Compound 377, N^2-(2-fluoropyridin-4-yl)-N^4-(oxetan-3-yl)-6-(6-(trifluoromethyl)pyridin-2-yl)-1,3,5-triazine-2,4-diamine], the IC50 [1] was 0.1 to 1 µM and the IC50 [2] was less than 0.1 µM.
Compound `FC(F)(F)c1cc(Nc2nc(NC3COC3)nc(-c3cccc(C(F)(F)F)n3)n2)ccn1` [Compound 378, N^2-(oxetan-3-yl)-6-(6-(trifluoromethyl)pyridin-2-yl)-N^4-(2-(trifluoromethyl)pyridin-4-yl)-1,3,5-triazine-2,4-diamine] has an IC50 [1] of 0.1 to 1 µM and an IC50 [2] of less than 0.1 µM.
`FC(F)(F)c1cncc(Nc2nc(NC3COC3)nc(-c3cccc(C(F)(F)F)n3)n2)c1` [Compound 379, N^2-(oxetan-3-yl)-6-(6-(trifluoromethyl)pyridin-2-yl)-N^4-(5-(trifluoromethyl)pyridin-3-yl)-1,3,5-triazine-2,4-diamine] showed an IC50 [1] of 0.1 to 1 µM and an IC50 [2] of less than 0.1 µM.
For `Fc1ccc(Nc2nc(NC3COC3)nc(-c3cccc(C(F)(F)F)n3)n2)cn1` [Compound 380, N^2-(6-fluoropyridin-3-yl)-N^4-(oxetan-3-yl)-6-(6-(trifluoromethyl)pyridin-2-yl)-1,3,5-triazine-2,4-diamine], the IC50 [1] was 0.1 to 1 µM and the IC50 [2] was 0.1 to 1 µM.
For `Fc1cncc(Nc2nc(NC3COC3)nc(-c3cccc(C(F)(F)F)n3)n2)c1` [Compound 381, N^2-(5-fluoropyridin-3-yl)-N^4-(oxetan-3-yl)-6-(6-(trifluoromethyl)pyridin-2-yl)-1,3,5-triazine-2,4-diamine], the IC50 [1] was 0.1 to 1 µM and the IC50 [2] was less than 0.1 µM.
`CC(C)Nc1nc(Nc2cncc(C#N)c2)nc(-c2cccc(Cl)n2)n1` [Compound 382, 5-(4-(6-chloropyridin-2-yl)-6-(isopropylamino)-1,3,5-triazin-2-ylamino)nicotinonitrile] gave an IC50 [1] of 0.1 to 1 µM and an IC50 [2] of less than 0.1 µM.
`CC(C)Nc1nc(Nc2cncc(F)c2)nc(-c2cccc(Cl)n2)n1` [Compound 383, 6-(6-chloropyridin-2-yl)-N^2-(5-fluoropyridin-3-yl)-N^4-isopropyl-1,3,5-triazine-2,4-diamine] gave an IC50 [1] of 0.1 to 1 µM and an IC50 [2] of less than 0.1 µM.
Work on `CC(C)Nc1nc(Nc2ccnc(F)c2)nc(-c2cccc(Cl)n2)n1` [Compound 384, 6-(6-chloropyridin-2-yl)-N^2-(2-fluoropyridin-4-yl)-N^4-isopropyl-1,3,5-triazine-2,4-diamine] yielded an IC50 [1] of 0.1 to 1 µM and an IC50 [2] of less than 0.1 µM.
`CC(C)(O)CNc1nc(Nc2ccc(F)nc2)nc(-c2cccc(C(F)(F)F)n2)n1` [Compound 385, 1-(4-(6-fluoropyridin-3-ylamino)-6-(6-(trifluoromethyl)pyridin-2-yl)-1,3,5-triazin-2-ylamino)-2-methylpropan-2-ol] was tested, and the IC50 [1] was 1 to 10 µM and the IC50 [2] was 0.1 to 1 µM.
`CC(C)Nc1nc(Nc2ccc(F)nc2)nc(-c2ccccc2F)n1` [Compound 387, 6-(2-fluorophenyl)-N^2-(6-fluoropyridin-3-yl)-N^4-isopropyl-1,3,5-triazine-2,4-diamine] gave an IC50 [1] of less than 0.1 µM and an IC50 [2] of less than 0.1 µM.
With `CC(C)(O)CNc1nc(Nc2ccc(F)nc2)nc(-c2cccc(Cl)n2)n1` [Compound 388, 1-(4-(6-chloropyridin-2-yl)-6-(6-fluoropyridin-3-ylamino)-1,3,5-triazin-2-ylamino)-2-methylpropan-2-ol] the IC50 [1] was 1 to 10 µM and the IC50 [2] was 0.1 to 1 µM.
With `CC(O)CNc1nc(Nc2ccnc(C(F)(F)F)c2)nc(-c2cccc(Cl)n2)n1` (stereo not drawn) [Compound 389, 1-(4-(6-chloropyridin-2-yl)-6-(2-(trifluoromethyl)pyridin-4-ylamino)-1,3,5-triazin-2-ylamino)propan-2-ol] the IC50 [1] was 1 to 10 µM and the IC50 [2] was less than 0.1 µM.
`CC(C)(O)CNc1nc(Nc2cncc(F)c2)nc(-c2cccc(Cl)n2)n1` [Compound 390, 1-(4-(6-chloropyridin-2-yl)-6-(5-fluoropyridin-3-ylamino)-1,3,5-triazin-2-ylamino)-2-methylpropan-2-ol] was tested, and the IC50 [1] was 1 to 10 µM and the IC50 [2] was 0.1 to 1 µM.
In the case of `CC(C)(O)CNc1nc(Nc2ccnc(C(F)(F)F)c2)nc(-c2cccc(Cl)n2)n1` [Compound 391, 1-(4-(6-chloropyridin-2-yl)-6-(2-(trifluoromethyl)pyridin-4-ylamino)-1,3,5-triazin-2-ylamino)-2-methylpropan-2-ol], the IC50 [1] is reported as 0.1 to 1 µM and the IC50 [2] is reported as less than 0.1 µM.
In the case of `CC(C)(O)CNc1nc(Nc2cncc(C(F)(F)F)c2)nc(-c2ccccc2F)n1` [Compound 392, 1-(4-(2-fluorophenyl)-6-(5-(trifluoromethyl)pyridin-3-ylamino)-1,3,5-triazin-2-ylamino)-2-methylpropan-2-ol], the IC50 [1] is reported as 0.1 to 1 µM and the IC50 [2] is reported as less than 0.1 µM.
`Fc1cc(Nc2nc(NC3COC3)nc(-c3cccc(Cl)n3)n2)ccn1` [Compound 393, 6-(6-chloropyridin-2-yl)-N^2-(2-fluoropyridin-4-yl)-N^4-(oxetan-3-yl)-1,3,5-triazine-2,4-diamine] was tested, and the IC50 [1] was 0.1 to 1 µM and the IC50 [2] was less than 0.1 µM.
Work on `CC(C)Nc1nc(Nc2cncc(C(F)(F)F)c2)nc(-c2cccc(Cl)n2)n1` [Compound 394, 6-(6-chloropyridin-2-yl)-N^2-isopropyl-N4-(5-(trifluoromethyl)pyridin-3-yl)-1,3,5-triazine-2,4-diamine] yielded an IC50 [1] of less than 0.1 µM and an IC50 [2] of less than 0.1 µM.
`CC(C)Nc1nc(Nc2cccc(S(C)(=O)=O)c2)nc(-c2cccc(C(C)(F)F)n2)n1` [Compound 395, 6-(6-(1,1-difluoroethyl)pyridin-2-yl)-N^2-isopropyl-N^4-(3-(methylsulfonyl)phenyl)-1,3,5-triazine-2,4-diamine] showed an IC50 [1] of 0.1 to 1 µM and an IC50 [2] of less than 0.1 µM.
Compound `CC(C)Nc1nc(Nc2ccnc(C(F)(F)F)c2)nc(-c2cccc(Cl)n2)n1` [Compound 396, 6-(6-chloropyridin-2-yl)-N^2-isopropyl-N4-(2-(trifluoromethyl)pyridin-4-yl)-1,3,5-triazine-2,4-diamine] has an IC50 [1] of 0.1 to 1 µM and an IC50 [2] of less than 0.1 µM.
